Assay results from the OPERA property sets (Mansouri et al. 2018).

Settings: not given

Row | Structure (SMILES) | boiling point [°C] | melting point [°C] | ready biodegradability | log10 vapour pressure (mmHg) | log10 Koc (L/kg) | log10 Henry constant (atm·m³/mol) | log10 Koa | log10 biodegradation half-life (days)
1 | CC(=O)Nc1ccc(Cl)cc1 | 333 | 179 |  |  |  |  |  | 
2 | O=C1c2ccccc2C(=O)C1c1nc2ccccc2c(Br)c1O |  |  | not readily biodegradable |  |  |  |  | 
3 | C1N2CN3CN1CN(C2)C3 |  |  | readily biodegradable | -2.4 |  |  |  | 
4 | Cc1cc(C)nc(C)c1 | 171 | -46 |  | 0.298 |  |  |  | 
5 | CC(=O)[C@@]1(C)CC[C@H]2[C@@H]3C=C(C)C4=CC(=O)CC[C@]4(C)[C@H]3CC[C@@]21C |  | 144 |  |  |  |  |  | 
6 | Cc1cc(O)cc(O)c1C | 284 | 136 |  |  |  |  |  | 
7 | c1ccc(-c2nc3ccccc3o2)cc1 |  | 103 |  |  |  |  |  | 
8 | COc1cc2c(c3oc(=O)c4c(c13)CCOC4=O)C1C=COC1O2 (centres undefined) |  | 245 |  |  |  |  |  | 
9 | CC(=O)c1ccc(O)c(O)c1 |  | 116 |  |  |  |  |  | 
10 | C/C=C/Cl | 35.2 | -117 |  | 2.71 |  |  |  | 
11 | CC(=O)c1ccc(Br)cc1 | 257 | 50.5 |  |  |  |  |  | 
12 | CCOP(=S)(S)OCC |  | -10 | not readily biodegradable |  |  |  |  | 
13 | CCOP(=S)(OCC)SCC(=O)NC(C)C |  | 28.5 |  |  |  |  |  | 
14 | COc1ccc(CCCCO)cc1 |  | 3.5 |  |  |  |  |  | 
15 | O=C1C(Cl)=C(Cl)C(=O)c2ccccc21 |  | 195 | not readily biodegradable | -5.96 | 3.98 |  |  | 
16 | CCc1ccc(O)c(OC)c1 | 236 | -7 |  |  |  |  |  | 
17 | CC1=C(C)C(=O)c2ccccc2C1=O |  | 127 |  |  |  |  |  | 
18 | CCCCCOC(=O)CCC(=O)OCCCCC |  | -10.8 |  |  |  |  |  | 
19 | CCCCCCCC/C=C\CCCCCCCC(=O)OCC(COC(=O)CCCCCCC/C=C\CCCCCCCC)OC(=O)CCCCCCC/C=C\CCCCCCCC |  |  | readily biodegradable |  |  |  |  | 
20 | COCCOC | 85 | -58 |  | 1.68 |  |  |  | 
21 | OCCc1ccccc1 | 218 | -27 | readily biodegradable | -1.06 | 1.5 | -6.59 |  | 
22 | CCCN(CCC)c1c([N+](=O)[O-])cc(S(C)(=O)=O)cc1[N+](=O)[O-] |  | 150 | not readily biodegradable | -8.03 | 2.92 |  |  | 
23 | CCCCCCCC/C=C\CCCCCCCCOC(=O)CCCCC(=O)OCCCCCCCC/C=C\CCCCCCCC |  |  | readily biodegradable |  |  |  |  | 
24 | Cc1ccccc1CN | 206 | -30 |  |  |  |  |  | 

Row | Structure (SMILES) | boiling point [°C] | melting point [°C] | ready biodegradability | log10 vapour pressure (mmHg) | log10 Koc (L/kg) | log10 Henry constant (atm·m³/mol) | log10 Koa | log10 biodegradation half-life (days)
25 | Cc1cccnc1 | 144 | -18.1 | not readily biodegradable | 0.782 |  | -5.11 |  | 
26 | Cc1ccc(O)c(C)c1C | 236 | 81 |  |  |  |  |  | 
27 | O=[N+]([O-])c1cc(Cl)cc(Cl)c1 |  | 65.4 |  |  |  |  |  | 
28 | O=[N+]([O-])c1ccccc1-c1ccccc1 | 320 | 37.2 |  |  |  |  |  | 
29 | O=C(O)CNc1ccccc1 |  | 128 |  |  |  |  |  | 
30 | CC(=O)c1cnccn1 |  | 77 |  |  |  |  |  | 
31 | CCCCC(=O)OCC | 146 | -91.2 |  | 0.681 | 1.97 |  |  | 
32 | COP(=S)(OC)Oc1cc(Cl)c(I)cc1Cl |  | 72.5 |  | -6.08 |  |  |  | 
33 | C[Si](C)(C)O[Si](C)(C)O[Si](C)(C)C | 153 | -80 |  | 0.524 |  | 1.49 |  | 
34 | C=CCc1cc(OC)c2c(c1OC)OCO2 | 294 | 29.5 |  |  |  |  |  | 
35 | CC(=O)Nc1cccc(Cl)c1 |  | 80 |  |  | 1.86 |  |  | 
36 | Cc1nc(C)c(C)nc1C | 190 | 85 |  |  |  |  |  | 
37 | Nc1ccc([N+](=O)[O-])cc1[N+](=O)[O-] | 334 | 180 | not readily biodegradable |  |  |  |  | 
38 | CCC(C)(C)C(=O)Cl | 132 |  |  |  |  |  |  | 
39 | O=CC=Cc1ccccc1 | 246 | -7.5 |  | -1.54 |  |  |  | 
40 | Cc1ccc2[nH]nnc2c1 |  | 81 |  |  |  |  |  | 
41 | CC[C@H]1CN2CCc3cc(OC)c(OC)cc3[C@@H]2C[C@@H]1C[C@H]1NCCc2cc(OC)c(OC)cc21 |  | 74 |  |  |  |  |  | 
42 | CC(C)(C)c1ccc(O)c(O)c1 | 285 | 54.3 |  |  |  |  |  | 
43 | CCC(N)C(=O)O (centres undefined) |  | 304 |  |  |  |  |  | 
44 | c1ccc(-c2ccccc2-c2ccccc2)cc1 | 332 | 56.2 |  | -3.6 |  |  |  | 
45 | O=C(O)C1CCNCC1 |  | 336 |  |  |  |  |  | 
46 | NC(=O)Nc1ccc(Br)cc1 | 260 | 226 |  |  | 2.06 |  |  | 
47 | CCCCCCCCCCCCCCCC[N+](C)(C)CC.[Br-] |  | 182 |  |  |  |  |  | 
48 | CCN(CC)CCNC(=O)c1cc(S(C)(=O)=O)ccc1OC |  | 124 |  |  |  |  |  | 

Row | Structure (SMILES) | boiling point [°C] | melting point [°C] | ready biodegradability | log10 vapour pressure (mmHg) | log10 Koc (L/kg) | log10 Henry constant (atm·m³/mol) | log10 Koa | log10 biodegradation half-life (days)
49 | CCCCCCCCCCCCCBr | 296 | 6.2 |  | -2.87 |  |  |  | 
50 | CCCCCCCCCCCCCCCCCC(=O)OCCCCC |  | 30 |  |  |  |  |  | 
51 | FC(F)(F)CBr | 26 | -93.9 |  |  |  |  |  | 
52 | O=Cc1c(F)c(F)cc(F)c1F | 178 |  |  |  |  |  |  | 
53 | c1ccc2occc2c1 | 174 |  |  | -0.356 |  |  |  | 
54 | CC1(C)CC(NCCCCCCNC2CC(C)(C)NC(C)(C)C2)CC(C)(C)N1 |  | 64 |  |  |  |  |  | 
55 | CCCC(C)C(=O)Nc1ccc(C)c(Cl)c1 (centres undefined) |  | 85 |  |  | 2.76 |  |  | 
56 | CN(C)c1ccc2cc3ccc(N(C)C)cc3nc2c1 |  | 165 |  |  |  |  |  | 
57 | CN1CCC(CN2c3ccccc3Sc3ccccc32)C1 (centres undefined) |  | 87.5 |  |  |  |  |  | 
58 | CC(C)CBr | 91.1 | -119 |  |  |  |  |  | 
59 | OCCCCCCCCCCCCO |  | 81.3 |  |  |  |  |  | 
60 | CN(C)c1cccc2c(S(N)(=O)=O)cccc12 |  | 220 |  |  |  |  |  | 
61 | C=CCNC(N)=O |  | 85 |  |  |  |  |  | 
62 | CCOC(=O)c1ccco1 | 197 | 34.5 |  | -0.432 |  |  |  | 
63 | CC(=O)Nc1ccccc1Cl |  | 89 |  |  | 1.58 |  |  | 
64 | C1CN(SSN2CCOCC2)CCO1 |  | 124 | not readily biodegradable |  |  |  |  | 
65 | CCC(c1ccc(O)cc1)c1ccc(O)cc1 |  | 132 |  |  |  |  |  | 
66 | Cc1[nH]c(=O)n(C(C)C)c(=O)c1Br |  | 158 |  |  | 2.11 |  |  | 
67 | Cc1ccc(S(=O)(=O)Oc2c(C(=O)c3ccc(Cl)cc3Cl)c(C)nn2C)cc1 |  | 118 |  |  |  |  |  | 
68 | CCCCC(CC)COCCO (centres undefined) | 229 |  |  |  |  |  |  | 
69 | CC1CC(=O)C(C)(C)C1 (centres undefined) | 158 | -40.6 |  |  |  |  |  | 
70 | CC(C)(C)C | 9.5 | -16.4 |  | 3.11 |  |  |  | 
71 | CN(C)c1ccc2ccccc2c1 | 305 | 52.5 |  |  |  |  |  | 
72 | Cc1ccc(C)c(Br)c1 | 199 | 9 |  |  |  |  |  | 

Row | Structure (SMILES) | boiling point [°C] | melting point [°C] | ready biodegradability | log10 vapour pressure (mmHg) | log10 Koc (L/kg) | log10 Henry constant (atm·m³/mol) | log10 Koa | log10 biodegradation half-life (days)
73 | Oc1ccc(C2CCCC2)cc1 |  | 65 |  |  |  |  |  | 
74 | FC(F)(F)C(F)(F)C(F)(F)C(F)(F)C(F)(F)C(F)(F)F | 56.6 | -87.1 |  | 2.34 |  |  |  | 
75 | CC1=C(/C=C/C(C)=C/C=C/C(C)=C/C=O)C(C)(C)CCC1 |  | 63 |  |  |  |  |  | 
76 | CCCCCCC | 98.5 | -90.6 | readily biodegradable | 1.66 |  |  | 2.95 | 0.845
77 | O=C(O)C1(O)c2ccccc2-c2ccc(Cl)cc21 (centres undefined) |  | 152 |  |  |  |  |  | 
78 | Cc1ccc(CC#N)cc1 | 242 | 18 |  |  |  |  |  | 
79 | O=C(O)CS(=O)(=O)O |  | 85 |  |  |  |  |  | 
80 | NC(=S)c1c(Cl)cccc1Cl |  | 152 |  | -6 | 2.26 |  |  | 
81 | O=C=NCCCCCCN=C=O | 255 | -67 |  |  |  |  |  | 
82 | C=CCCCc1ccccc1 | 201 |  |  |  |  |  |  | 
83 | O=C(O)c1cc(O)c(O)c(=O)c(O)c1 |  | 317 |  |  |  |  |  | 
84 | CC[C@H]1CN2CC[C@]3(C(=O)Nc4ccccc43)[C@@H]2C[C@@H]1/C(=C\OC)C(=O)OC |  | 216 |  |  |  |  |  | 
85 | NC(=O)C(Cl)Cl | 234 | 99.4 |  |  |  |  |  | 
86 | O=C(CCCN1CCC(n2c(=S)[nH]c3ccccc32)CC1)c1ccc(F)cc1 |  | 202 |  |  |  |  |  | 
87 | O=c1cc(-c2ccc(O)cc2)oc2cc(O)cc(O)c12 |  | 348 |  |  |  |  |  | 
88 | C1CCC(CCC2CCCCC2)CC1 | 272 | 11.5 |  |  |  |  |  | 
89 | CC(=O)c1cc(C(C)C)ccc1C | 250 |  |  |  |  |  |  | 
90 | Cc1ccc(C(C)C)c(O)c1C(=O)O |  | 127 |  |  |  |  |  | 
91 | C#C[C@]1(O)CC[C@H]2[C@@H]3CCc4cc(OC5CCCC5)ccc4[C@H]3CC[C@@]21C |  | 108 |  |  |  |  |  | 
92 | CCCc1ccccc1N | 226 |  |  |  |  |  |  | 
93 | O=[N+]([O-])OCC(CO[N+](=O)[O-])O[N+](=O)[O-] | 250 | 13.5 |  | -3.4 |  |  |  | 
94 | C[N+](C)(C)CCOC(Cc1ccccc1)c1ccccc1.[Br-] (centres undefined) |  | 146 |  |  |  |  |  | 

Same assay, conditions: fish

Row | Structure (SMILES) | log10 BCF | log10 biotransformation half-life (days)
95 | O=C1c2ccccc2C(=O)C1c1nc2ccccc2c(Br)c1O | 1.14 | 
96 | CCOP(=S)(S)OCC | 0.7 | 
97 | Cc1ccccc1CN | 0.66 | 
98 | O=[N+]([O-])c1cc(Cl)cc(Cl)c1 | 2.23 | 0.57
99 | COP(=S)(OC)Oc1cc(Cl)c(I)cc1Cl | 3.62 | 0.86
100 | c1ccc(-c2ccccc2-c2ccccc2)cc1 | 3.48 | 0.86
101 | C1CCC(CCC2CCCCC2)CC1 |  | 0.13
